Data reported in patent publication US9469615B2, “Quinoxalines and AZA-quinoxalines as CRTH2 receptor modulators” (Merck Sharp & Dohme Corp., priority 2010, dated 2016).

What follows are molecules tested against T1, hCRTH2 (Homo sapiens, UniProt Q9Y5Y4) (assay: Radioligand binding assay ([3H]PGD2 competition, HEK-hCRTH2 membranes)). Settings: [3H]PGD2 binding, rated A-E (Table A).
T1 construct: expressed in transfected cells; host or cells: HEK (human embryonic kidney) cells expressing hCRTH2; membrane preparation
T1 sequence (Q9Y5Y4 1-395): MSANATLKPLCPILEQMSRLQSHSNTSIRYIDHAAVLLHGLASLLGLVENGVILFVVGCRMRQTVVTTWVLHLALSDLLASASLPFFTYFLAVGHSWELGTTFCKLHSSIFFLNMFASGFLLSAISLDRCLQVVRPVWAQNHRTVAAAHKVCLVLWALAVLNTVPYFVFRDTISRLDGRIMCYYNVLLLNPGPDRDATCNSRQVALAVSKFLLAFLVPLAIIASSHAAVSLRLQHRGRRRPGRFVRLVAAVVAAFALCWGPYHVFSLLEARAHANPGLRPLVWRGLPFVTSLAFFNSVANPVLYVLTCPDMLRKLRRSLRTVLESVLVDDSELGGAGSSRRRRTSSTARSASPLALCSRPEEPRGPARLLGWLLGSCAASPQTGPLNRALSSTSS
How it was run: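 Membranes (8-20 μg protein) from HEK-hCRTH2 cells were incubated 60 min at room temperature with 3.0 nM [3H]PGD2 in 50 mM Tris-HCl pH 7.4, 1 mM EDTA, 2 mM MnCl2, 1% DMSO. Non-specific binding defined with 10 μM PGD2. Bound radioactivity counted after filtration.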
Molecule `C[C@H](c1ccc(Cl)cc1)N(C)C(=O)c1ccc2nc(-c3ccc(F)cc3)c(CCCCC(=O)O)nc2c1` [compound 242, 7-[[[1(R)-(4-chlorophenyl)ethyl]methylamino]carbonyl]-3-(4-fluorophenyl)-2-quinoxalinepentanoic acid] has a Ki of 2.1 to 20 nM.
`C[C@@H](c1ccc(Cl)cc1)N(C)C(=O)c1ccc2nc(-c3ccc(F)cc3)c(CCCCC(=O)O)nc2c1` [compound 243, 7-[[[1(S)-(4-chlorophenyl)ethyl]methylamino]carbonyl]-3-(4-fluorophenyl)-2-quinoxalinepentanoic acid] showed a Ki of 2.1 to 20 nM.
`O=C(O)CCCCc1nc2cc(C(=O)N3CCC(c4ncccn4)CC3)ccc2nc1-c1ccc(F)cc1` [compound 244, 3-(4-fluorophenyl)-7-[[4-(2-pyrimidinyl)-1-piperidinyl]carbonyl]-2-quinoxalinepentanoic acid] was tested, and the Ki was 2.1 to 20 nM.
In the case of `O=C(O)CCCCc1nc2cc(C(=O)N3CCC(c4ncccn4)CC3)ccc2nc1-c1ccccc1` [compound 245, 3-phenyl-7-[[4-(2-pyrimidinyl)-1-piperidinyl]carbonyl]-2-quinoxalinepentanoic acid], the Ki is reported as 2.1 to 20 nM.
Work on `N#Cc1ccc(C2CN(C(=O)c3ccc4nc(-c5ccc(F)cc5)c(CCCCC(=O)O)nc4c3)C2)cc1` [compound 246, 7-[[3-(4-cyanophenyl)-1-azetidinyl]carbonyl]-3-(4-fluorophenyl)-2-quinoxalinepentanoic acid] yielded a Ki of 0.1 to 2 nM.
For `O=C(O)CCCCc1nc2cc(C(=O)N3CC(c4nc5ccccc5[nH]4)C3)ccc2nc1-c1ccccc1` [compound 247, 7-[[3-(1H-benzimidazol-2-yl)-1-azetidinyl]carbonyl]-3-phenyl-2-quinoxalinepentanoic acid], the Ki was 2.1 to 20 nM.
`O=C(O)CCCCc1nc2cc(C(=O)N3CC(c4nc5ccccc5o4)C3)ccc2nc1-c1ccc(F)cc1` [compound 248, 7-[[3-(2-benzoxazolyl)-1-azetidinyl]carbonyl]-3-(4-fluorophenyl)-2-quinoxalinepentanoic acid] gave a Ki of 2.1 to 20 nM.
In the case of `O=C(O)CCCCc1nc2cc(C(=O)N3CC(c4ccc(F)c(F)c4)C3)ccc2nc1-c1ccccc1` [compound 249, 7-[[3-(3,4-difluorophenyl)-1-azetidinyl]carbonyl]-3-phenyl-2-quinoxalinepentanoic acid], the Ki is reported as 0.1 to 2 nM.
In the case of `O=C(O)CCCCc1nc2cc(C(=O)N3CC(c4ccc(F)cc4)C3)ccc2nc1-c1ccccc1` [compound 250, 7-[[3-(4-fluorophenyl)-1-azetidinyl]carbonyl]-3-phenyl-2-quinoxalinepentanoic acid], the Ki is reported as 0.1 to 2 nM.
`O=C(O)CCCCc1nc2cc(C(=O)N3CC(c4cccc(F)c4)C3)ccc2nc1-c1ccccc1` [compound 251, 7-[[3-(3-fluorophenyl)-1-azetidinyl]carbonyl]-3-phenyl-2-quinoxalinepentanoic acid] showed a Ki of 0.1 to 2 nM.
With `O=C(O)CCCCc1nc2cc(C(=O)N3CC(c4ccc(Cl)cc4)C3)ccc2nc1-c1ccccc1` [compound 252, 7-[[3-(4-chlorophenyl)-1-azetidinyl]carbonyl]-3-phenyl-2-quinoxalinepentanoic acid] the Ki was 0.1 to 2 nM.
`O=C(O)CCCCc1nc2cc(C(=O)N3CC(c4cccc(Cl)c4)C3)ccc2nc1-c1ccccc1` [compound 253, 7-[[3-(3-chlorophenyl)-1-azetidinyl]carbonyl]-3-phenyl-2-quinoxalinepentanoic acid] was tested, and the Ki was 0.1 to 2 nM.
`O=C(O)CCCCc1nc2cc(C(=O)N[C@@H]3CCCc4cc(F)ccc43)ccc2nc1-c1ccccc1` [compound 254, 7-[[(6-fluoro-1,2,3,4-tetrahydro-1(R)-naphthalenyl)amino]carbonyl]-3-phenyl-2-quinoxalinepentanoic acid] gave a Ki of 0.1 to 2 nM.
In the case of `O=C(O)CCCCc1nc2cc(C(=O)N[C@@H]3CCCc4cc(Cl)ccc43)ccc2nc1-c1ccccc1` [compound 255, 7-[[(6-chloro-1,2,3,4-tetrahydro-1(R)-naphthalenyl)amino)carbonyl]-3-phenyl-2-quinoxalinepentanoic acid], the Ki is reported as 0.1 to 2 nM.

Same assay, conditions: [3H]PGD2 binding, values in text
Molecule `N#Cc1ccc(C2CN(C(=O)c3ccc4nc(-c5ccc(F)cc5)c(CCCCC(=O)O)nc4c3)C2)cc1` [compound 246, 7-[[3-(4-cyanophenyl)-1-azetidinyl]carbonyl]-3-(4-fluorophenyl)-2-quinoxalinepentanoic acid] has a Ki of 1.9 nM.
Work on `O=C(O)CCCCc1nc2cc(C(=O)N3CC(c4cccc(F)c4)C3)ccc2nc1-c1ccccc1` [compound 251, 7-[[3-(3-fluorophenyl)-1-azetidinyl]carbonyl]-3-phenyl-2-quinoxalinepentanoic acid] yielded a Ki of 1 nM.
For `O=C(O)CCCCc1nc2cc(C(=O)N[C@@H]3CCCc4cc(Cl)ccc43)ccc2nc1-c1ccccc1` [compound 255, 7-[[(6-chloro-1,2,3,4-tetrahydro-1(R)-naphthalenyl)amino)carbonyl]-3-phenyl-2-quinoxalinepentanoic acid], the Ki was 1.5 nM.
In the case of `O=C(N[C@@H]1CCCc2cc(F)ccc21)c1ccc2nc(-c3ccc(F)cc3)c(CCC3CC3C(=O)O)nc2c1` (stereo partly drawn) [compound 264, 2-(2-(7-(((R)-6-fluoro-1,2,3,4-tetrahydronaphthalen-l-yl)carbamoyl)-3-(4-fluorophenyl)quinoxalin-2-yl)ethyl)cyclopropanecarboxylic acid], the Ki is reported as 15.4 nM.

Same assay, conditions: [3H]PGD2 competition, Table B
Work on `O=C(O)CCCCc1nc2cc(C(=O)N[C@@H]3CCCc4ccccc43)ccc2nc1-c1ccccc1` [compound 256, (R)-5-(3-phenyl-7-((1,2,3,4-tetrahydronaphthalen-1-yl)carbamoyl)quinoxalin-2-yl)pentanoic acid] yielded a Ki of 0.1 to 2 nM.
With `C[C@H](NC(=O)c1ccc2nc(-c3ccc(Cl)cc3)c(CCCCC(=O)O)nc2c1)c1ccc(C#N)cc1` [compound 257] the Ki was 2.1 to 20 nM.
For `C[C@@H](CCc1nc2cc(C(=O)N[C@@H]3CCCc4ccccc43)ccc2nc1-c1ccc(F)cc1)CC(=O)O` [compound 258, (S)-5-(3-(4-fluorophenyl)-7-(((R)-1,2,3,4-tetrahydronaphthalen-1-yl)carbamoyl)quinoxalin-2-yl)-3-methylpentanoic acid], the Ki was 2.1 to 20 nM.
In the case of `O=C(O)Cc1cccc(-c2nc3cc(C(=O)N4CCN(c5ccccc5)CC4)ccc3nc2-c2ccc(Cl)cc2)c1` [compound 259, 2-(3-(3-(4-chlorophenyl)-7-(4-phenylpiperazine-1-carbonyl)quinoxalin-2-yl)phenyl)acetic acid], the Ki is reported as 201 to 700 nM.
`O=C(N[C@@H]1CCCc2cc(F)ccc21)c1ccc2nc(-c3ccc(F)cc3)c(CC[C@H]3C[C@@H]3C(=O)O)nc2c1` [compound 261, (1S,2S)-2-(2-(7-(((R)-6-fluoro-1,2,3,4-tetrahydronaphthalen-1-yl)carbamoyl)-3-(4-fluorophenyl)quinoxalin-2-yl)ethyl)cyclopropane-carboxylic acid] was tested, and the Ki was 2.1 to 20 nM.
Molecule `O=C(N[C@@H]1CCCc2ccccc21)c1ccc2nc(-c3ccc(F)cc3)c(CC[C@H]3C[C@@H]3C(=O)O)nc2c1` [compound 262, (1S,2S)-2-(2-(3-(4-fluorophenyl)-7-(((R)-1,2,3,4-tetrahydronaphthalen-1-yl)carbamoyl)quinoxalin-2-yl)ethyl)cyclopropanecarboxylic acid] has a Ki of 2.1 to 20 nM.
Work on `O=C(N[C@@H]1CCCc2cc(F)ccc21)c1ccc2nc(-c3ccc(F)cc3)c(CC[C@@H]3C[C@H]3C(=O)O)nc2c1` [compound 263, (1R,2R)-2-(2-(7-(((R)-6-fluoro-1,2,3,4-tetrahydronaphthalen-l-yl)carbamoyl)-3-(4-fluorophenyl)quinoxalin-2-yl)ethyl)cyclopropanecarboxylic acid] yielded a Ki of 2.1 to 20 nM.
In the case of `O=C(N[C@@H]1CCCc2cc(F)ccc21)c1ccc2nc(-c3ccc(F)cc3)c(CCC3CC3C(=O)O)nc2c1` (stereo partly drawn) [compound 264, 2-(2-(7-(((R)-6-fluoro-1,2,3,4-tetrahydronaphthalen-l-yl)carbamoyl)-3-(4-fluorophenyl)quinoxalin-2-yl)ethyl)cyclopropanecarboxylic acid], the Ki is reported as 2.1 to 20 nM.
With `C[C@@H]1CN(c2ccc(F)cc2)CCN1C(=O)c1ccc2nc(-c3ccccc3)c(CCCCC(=O)O)nc2c1` [compound 265, (R)-5-(7-(4-(4-fluorophenyl)-2-methylpiperazine-1-carbonyl)-3-phenylquinoxalin-2-yl)pentanoic acid] the Ki was 2.1 to 20 nM.
`O=C(O)CCCCc1nc2cc(C(=O)NC3CC(=O)Nc4ccccc43)ccc2nc1-c1ccccc1` (centres unmarked) [compound 266, 5-(7-((2-oxo-1,2,3,4-tetrahydroquinolin-4-yl)carbamoyl)-3-phenylquinoxalin-2-yl)pentanoic acid] was tested, and the Ki was 2.1 to 20 nM.
In the case of `O=C(O)CCCCc1nc2cc(C(=O)N3CCC4(CC3)CNC(=O)c3ccccc34)ccc2nc1-c1ccc(Cl)cc1` [compound 267, 5-(3-(4-chlorophenyl)-7-(1-oxo-2,3-dihydro-1H-spiro[isoquinoline-4,4′-piperidin]-1′-ylcarbonyl)quinoxalin-2-yl)pentanoic acid], the Ki is reported as 2.1 to 20 nM.
Work on `O=C(O)CCCCc1nc2cc(C(=O)NC3CCC(=O)Nc4ccccc43)ccc2nc1-c1ccc(Cl)cc1` (centres unmarked) [compound 268, 5-(3-(4-chlorophenyl)-7-((2-oxo-2,3,4,5-tetrahydro-1H-benzo[b]azepin-5-yl)carbamoyl)quinoxalin-2-yl)pentanoic acid] yielded a Ki of 2.1 to 20 nM.
Work on `O=C(O)Cc1cccc(CCCc2nc3cc(C(=O)N[C@@H]4CCCc5ccccc54)ccc3nc2-c2ccc(F)cc2)c1` [compound 269, (R)-2-(3-(3-(3-(4-fluorophenyl)-7-((1,2,3,4-tetrahydronaphthalen-1-yl)carbamoyl)quinoxalin-2-yl)propyl)phenyl)acetic acid] yielded a Ki of 201 to 700 nM.
With `O=C(O)Cc1cccc(CCCc2nc3cc(C(=O)N[C@H]4CCCc5ccccc54)ccc3nc2-c2ccc(F)cc2)c1` [compound 270, (S)-2-(3-(3-(3-(4-fluorophenyl)-7-((1,2,3,4-tetrahydronaphthalen-1-yl)carbamoyl)quinoxalin-2-yl)propyl)phenyl)acetic acid] the Ki was 201 to 700 nM.
Work on `C[C@@H](NC(=O)c1ccc2nc(-c3ccc(F)cc3)c(CCCc3cccc(CC(=O)O)c3)nc2c1)c1ccc(F)cc1` [compound 271] yielded a Ki of 201 to 700 nM.
`O=C(O)Cc1cccc(CCCc2nc3cc(C(=O)N4CCN(c5ccccc5)CC4)ccc3nc2-c2ccc(F)cc2)c1` [compound 272, 2-(3-(3-(3-(4-fluorophenyl)-7-(4-phenylpiperazine-1-carbonyl)quinoxalin-2-yl)propyl)phenyl)acetic acid] gave a Ki of 20.1 to 200 nM.
`O=C(O)Cc1cccc(CCCc2nc3cc(C(=O)N4CC(c5cccc(F)c5)C4)ccc3nc2-c2ccc(F)cc2)c1` [compound 273, 2-(3-(3-(3-(4-fluorophenyl)-7-(3-(3-fluorophenyl)azetidine-1-carbonyl)quinoxalin-2-yl)propyl)phenyl)acetic acid] showed a Ki of 20.1 to 200 nM.
